In article PMC5843546 (Nature, 2018):

Legend:
DRD2 wild-type = DRD2 wild-type (Homo sapiens, UniProt P14416); assay: biochemical
[1] = target: T1, DRD2-T4L(Sf9) I122^3.40A/L375^6.37A/L379^6.41A (Homo sapiens, UniProt P14416, I122A/L375A/L379A); assay: biochemical
T1 sequence (P14416 with tags, fused parts or gaps I122A/L375A/L379A): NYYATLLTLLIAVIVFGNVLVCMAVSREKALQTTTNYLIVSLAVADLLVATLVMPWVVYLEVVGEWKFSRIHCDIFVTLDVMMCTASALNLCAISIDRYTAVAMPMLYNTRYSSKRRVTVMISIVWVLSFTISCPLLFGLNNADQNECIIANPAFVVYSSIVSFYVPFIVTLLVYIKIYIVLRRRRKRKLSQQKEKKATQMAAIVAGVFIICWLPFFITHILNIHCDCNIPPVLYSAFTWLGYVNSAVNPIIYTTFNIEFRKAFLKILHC

DRD2 W100^EL1A = DRD2 W100^EL1A (Homo sapiens, UniProt P14416, W100A); details: DRD2 W100^EL1A vs wild-type
DRD2 F110^3.28A = DRD2 F110^3.28A (Homo sapiens, UniProt P14416, F110A); details: DRD2 F110^3.28A vs wild-type

Row | SMILES | Ki (DRD2 wild-type; Ki) | Ki (DRD2 wild-type; pKi) | Ki ([1]; Ki) | Ki ([1]; pKi) | ΔpKd (mutant-WT) (DRD2 W100^EL1A) | ΔpKd (mutant-WT) (DRD2 F110^3.28A)
1 | O=c1[nH]c2cccc(N3CCN(Cc4cccc(-c5ccccc5)c4)CC3)c2o1 [Bifeprunox] | 1.04 nM | 0.302 nM | 0.57 nM | 0.562 nM |  | 
2 | CNc1cc(OC)c(C(=O)NC2CCN(Cc3ccccc3)C2C)cc1Cl (stereo not drawn) [Nemonapride, nemonapride] |  |  |  |  | −0.98 | 0.08
